Source: patent US8344028B2, “Gamma-amino-butyric acid derivatives as GABAB receptor ligands” (XenoPort, Inc., priority 2009, dated 2013)

These compounds were tested against GABAB receptor (Homo sapiens, UniProt Q9UBS5) (assay: GABAB receptor agonist or partial agonist activity by binding, electrophysiology, cAMP and/or Ca2+ assay methods (Examples 83-86)).
Format: cell-based
Protocol: An assay using rat cerebral cortex membranes was used to determine the affinity of GABAB receptor ligands for the GABAB receptor.
An assay buffer of 50 mM Tris pH 7.4 was prepared with 100 μM of isoguvacine, to block GABAA interactions. The assay buffer with isoguvacine was used for dilution of membranes, compounds, and radiolabel.
Rat cerebral cortex membranes were diluted in assay buffer at 1 mg/mL and aliquoted into a 96-well plate at 900 μL/well. Buffer or test compound were added at 20-times final concentration in the buffer at 50 μL/well. Membranes and test compounds or buffer were incubated for 10 min. at room temperature. Radiolableled [S—(R*,R*)]-[3-[[1-(3,4-dichlorophenyl)ethyl]amino]-2-hydroxypropyl](cyclohexylmethyl) phosphinic acid (CGP54626) was then added at 50 μL/well in the buffer at 1-10 nM concentration in 50 μl. […] The assay mixture was filtered using Brandell filtration apparatus and GFB filters, washed twice with 3 mL of 4° C., 50 mM Tris pH 7.4, buffer without isoguvacine. The filters were then dried at room temperature and the dried filters punched out and placed in individual vials. Three (3) mL of scintillation fluid was added to each vial and the radiolabel counted on the scintillation counter. The inverse amount of radiolabel was indicative of binding of a test compound to the GABAB receptor.
The following procedure was used to determine the level of intracellular cAMP. Recombinant HEK cells expressing the GABAB R1a2 receptor were used in the experiments. cAMP levels were measured using a cAMP XS^+ HitHunter™ Chemiluminescence Assay Kit (90-0075-02, GE Healthcare Biosciences Corp.). Cells were seeded overnight at 5,000 cells per well, in black, clear bottom 96-well plates. The following morning, cells were washed twice with 100 μL PBS per well. Forskolin was weighed out and dissolved in DMSO to a final concentration 100 mM. One-hundred (100) μM forskolin solutions were prepared in PBS with and without test compound at 1-times final concentration. Thirty (30) μL of the test solutions were added to the wells and incubated for 1 h at room temperature. The cAMP concentration was determined according to the protocol described in the cAMP assay kit, maintaining the plate at room temperature and in the dark. […] Each well was read for 6 seconds. The untransformed data was then analyzed.
The following procedure was used to determine the GABAB receptor agonist activity of a compound as reflected by activation of Ca^2+ signaling. HEK TREx cells expressing GABABR1a2 under tetracycline induction control, and Gqi chimeric protein (expressed constitutively), allowing GABABR coupling through the Ca^2+ signaling pathway were used in the experiments.
Cells were seeded in media containing tetracycline overnight at 100,000 cells/well, in black, clear-bottom, 96-well plates. The following morning, cells were washed twice with 100 μL HBSS buffer per well. Fluorescent Ca^2+ indicator dye was prepared using the materials and procedure described in the F362056 Fluo-4 NW Calcium Assay Kit (Invitrogen, Carlsbad, Calif.). Ten (10) mL of kit buffer and 100 μl of kit Probenecid were added to individual kit dye vials, and rolled back and forth several times to dissolve the dye. Cells were then loaded into the dye solution at 50 μL per well. The cells and dye were incubated for 30 min at 37° C., and then incubated for an additional 30 min at room temperature in the dark. Test compounds are dissolved in HBSS buffer at twice final concentration. Duplicate wells were used for each unique condition. Solution containing the test compound was added to the wells using a FLEXStation II (Molecular Devices, Sunnyvale, Calif.). Using the instrument in kinetic mode in which each well was read every 2 sec over a total collection time of 50 sec fluorescence was measured using an excitation wavelength 494 nm and a detection wavelength of 516 nm. A normalized fluorescence value for each well was calculated using the following procedure.

GABAB receptor, sequence (Q9UBS5 20-961): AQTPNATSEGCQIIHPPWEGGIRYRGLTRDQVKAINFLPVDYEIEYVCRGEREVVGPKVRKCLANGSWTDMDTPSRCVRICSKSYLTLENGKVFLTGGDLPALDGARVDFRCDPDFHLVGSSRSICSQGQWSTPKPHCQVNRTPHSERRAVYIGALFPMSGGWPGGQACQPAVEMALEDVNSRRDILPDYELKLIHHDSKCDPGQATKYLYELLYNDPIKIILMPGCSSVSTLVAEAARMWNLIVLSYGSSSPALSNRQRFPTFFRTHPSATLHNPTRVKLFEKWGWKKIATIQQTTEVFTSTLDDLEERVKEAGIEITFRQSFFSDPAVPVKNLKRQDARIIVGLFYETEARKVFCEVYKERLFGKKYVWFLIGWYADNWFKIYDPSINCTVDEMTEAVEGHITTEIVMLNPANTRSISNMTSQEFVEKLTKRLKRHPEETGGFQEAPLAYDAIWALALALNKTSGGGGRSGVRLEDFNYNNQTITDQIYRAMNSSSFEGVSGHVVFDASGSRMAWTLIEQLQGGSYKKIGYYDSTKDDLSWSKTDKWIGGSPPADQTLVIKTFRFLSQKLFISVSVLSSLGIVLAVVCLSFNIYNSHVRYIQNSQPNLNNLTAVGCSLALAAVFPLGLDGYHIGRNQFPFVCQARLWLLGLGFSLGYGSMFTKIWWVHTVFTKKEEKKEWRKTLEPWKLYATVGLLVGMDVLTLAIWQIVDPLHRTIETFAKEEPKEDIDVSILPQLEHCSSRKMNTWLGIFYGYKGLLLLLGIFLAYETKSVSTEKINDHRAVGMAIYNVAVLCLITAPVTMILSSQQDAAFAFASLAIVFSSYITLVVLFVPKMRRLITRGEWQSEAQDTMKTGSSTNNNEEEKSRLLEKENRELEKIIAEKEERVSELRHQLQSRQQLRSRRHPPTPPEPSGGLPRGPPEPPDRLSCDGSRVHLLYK
GABAB receptor, sequence (O75899 42-941 partner): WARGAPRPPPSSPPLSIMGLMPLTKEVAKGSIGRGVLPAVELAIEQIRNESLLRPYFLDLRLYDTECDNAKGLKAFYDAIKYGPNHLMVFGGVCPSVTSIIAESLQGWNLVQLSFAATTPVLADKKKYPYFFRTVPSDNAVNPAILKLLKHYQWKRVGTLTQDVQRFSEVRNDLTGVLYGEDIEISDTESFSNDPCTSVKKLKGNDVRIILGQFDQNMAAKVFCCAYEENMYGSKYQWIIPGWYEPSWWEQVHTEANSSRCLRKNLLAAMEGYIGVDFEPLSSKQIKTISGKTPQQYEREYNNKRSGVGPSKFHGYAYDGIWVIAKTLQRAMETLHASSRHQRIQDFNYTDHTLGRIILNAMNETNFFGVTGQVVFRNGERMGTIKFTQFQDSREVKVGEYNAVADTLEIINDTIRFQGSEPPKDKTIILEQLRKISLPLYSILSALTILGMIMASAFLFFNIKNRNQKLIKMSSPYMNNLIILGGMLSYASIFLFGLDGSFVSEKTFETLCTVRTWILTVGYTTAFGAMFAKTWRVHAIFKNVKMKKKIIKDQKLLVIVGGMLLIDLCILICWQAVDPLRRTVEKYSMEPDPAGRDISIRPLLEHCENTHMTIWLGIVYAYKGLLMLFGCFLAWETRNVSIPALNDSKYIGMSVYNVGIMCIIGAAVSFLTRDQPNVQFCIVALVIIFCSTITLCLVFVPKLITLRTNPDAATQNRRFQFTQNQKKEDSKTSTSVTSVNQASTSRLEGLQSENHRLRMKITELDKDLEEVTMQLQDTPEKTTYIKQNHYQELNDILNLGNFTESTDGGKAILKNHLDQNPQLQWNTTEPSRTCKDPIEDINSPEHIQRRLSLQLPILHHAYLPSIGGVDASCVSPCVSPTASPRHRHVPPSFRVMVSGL

Compound	GABAB receptor agonist or partial agonist activity
Cl.N#Cc1ccc(O)c(-c2cc([C@H](CN)CC(=O)O)ccc2Cl)c1 [(3R)-4-amino-3-[4-chloro-3-(3-cyano-6-hydroxyphenyl)phenyl]butanoic acid hydrochloride]	agonist or partial agonist activity
Cl.N#Cc1cccc(-c2cc([C@H](CN)CCO)ccc2Cl)c1 [Example 53, 3-{5-[(1R)-1-(Aminomethyl)-3-hydroxypropyl]-2-chlorophenyl}benzenecarbonitrile hydrochloride]	agonist or partial agonist activity
NC[C@H](CC(=O)O)c1cc(Br)c(Cl)c(-c2cc(Cl)cc(C(=O)O)c2)c1 [3-{5-[(1R)-2-amino-1-(carboxymethyl)ethyl]-3-bromo-2-chlorophenyl}-5-chlorobenzoic acid]	agonist or partial agonist activity
Cl.NC[C@H](CC(=O)O)c1ccc(Cl)c(-c2cncc(C(=O)O)c2)c1 [Example 48, 5-{5-[(1R)-2-Amino-1-(carboxymethyl)ethyl]-2-chlorophenyl}pyridine-3-carboxylic acid hydrochloride]	agonist or partial agonist activity
NC[C@H](CC(=O)O)c1ccc(Cl)c(NC(=O)c2cccc(F)c2)c1 [(3R)-4-amino-3-{4-chloro-3-[(3-fluorophenyl)carbonylamino]phenyl}butanoic acid]	agonist or partial agonist activity
Cl.NC[C@H](CC(=O)O)c1ccc(Cl)cc1-c1cccc(C(=O)O)c1 [3-{2-[(1R)-2-amino-1-(carboxymethyl)ethyl]-5-chlorophenyl}benzoic acid hydrochloride]	agonist or partial agonist activity
Cl.N#Cc1cccc(-c2cc(Cl)ccc2[C@H](CN)CC(=O)O)c1 [(3R)-4-amino-3-[4-chloro-2-(3-cyanophenyl)phenyl]butanoic acid hydrochloride]	agonist or partial agonist activity
COc1cncc(-c2cc(C(CN)CC(=O)O)ccc2Cl)c1.Cl (centres unmarked) [4-amino-3-[4-chloro-3-(5-methoxy(3-pyridyl))phenyl]butanoic acid hydrochloride]	agonist or partial agonist activity
Cl.N#Cc1cccc(COc2cc([C@H](CN)CC(=O)O)ccc2Cl)c1 [(3R)-4-amino-3-{4-chloro-3-[(3-cyanophenyl)methoxy]phenyl}butanoic acid hydrochloride]	agonist or partial agonist activity
NC[C@H](CC(=O)O)c1cc(Br)c(Cl)c(-c2cccnc2)c1 [(3R)-4-amino-3-(5-bromo-4-chloro-3-(3-pyridyl)phenyl)butanoic acid]	agonist or partial agonist activity
Cl.N#Cc1cccc(-c2cc([C@H](CN)CC(=O)O)cc(Br)c2Cl)c1 [(3R)-4-amino-3-[3-bromo-4-chloro-5-(3-cyanophenyl]butanoic acid hydrochloride]	agonist or partial agonist activity
CS(=O)(=O)c1cccc(-c2cc([C@H](CN)CC(=O)O)ccc2Cl)c1.Cl [Example 54, (3R)-4-Amino-3-{4-chloro-3-[3-(methylsulfonyl)phenyl]phenyl}butanoic acid hydrochloride]	agonist or partial agonist activity
Cn1cncc1CNc1cc([C@H](CN)CC(=O)O)ccc1Cl [Example 59, (3R)-4-Amino-3-(4-chloro-3-{[(1-methylimidazol-5-yl)methyl]amino}phenyl)butanoic acid]	agonist or partial agonist activity
Cl.NC[C@H](CC(=O)O)c1ccc(Cl)c(OCc2ccccn2)c1 [(3R)-4-amino-3-[4-chloro-3-(2-pyridylmethoxy)phenyl]butanoic acid hydrochloride]	agonist or partial agonist activity
Cl.NC[C@H](CC(=O)O)c1ccc(Cl)c(Cc2ccc(C(=O)O)cc2)c1 [4-({5-[(1R)-2-amino-1-(carboxymethyl)ethyl]-2-chlorophenyl}methyl)benzoic acid hydrochloride]	agonist or partial agonist activity
Cl.NC[C@H](CC(=O)O)c1ccc(Cl)c(Cc2cccc([N+](=O)[O-])c2)c1 [(3R)-4-amino-3-{4-chloro-3-[(3-nitrophenyl)methyl]phenyl}butanoic acid hydrochloride]	agonist or partial agonist activity
Cc1ccc(C(=O)O)cc1-c1cc([C@H](CN)CC(=O)O)ccc1Cl.Cl [3-{5-[(1R)-2-amino-1-(carboxymethyl)ethyl]-2-chlorophenyl}-4-methylbenzoic acid hydrochloride]	agonist or partial agonist activity
Cl.NC[C@H](CC(=O)O)c1ccc(Cl)c(NCc2cc(C(F)(F)F)cc(C(F)(F)F)c2)c1 [(3R)-4-amino-3-[3-({[3,5-bis(trifluoromethyl)phenyl]methyl}amino)-4-chlorophenyl]butanoic acid hydrochloride]	agonist or partial agonist activity
Cl.NC[C@H](CC(=O)O)c1ccc(Cl)c(/C=C/c2ccccn2)c1 [3-[3-((1E)-2-(2-pyridyl)vinyl)-4-chlorophenyl](3R)-4-aminobutanoic acid hydrochloride]	agonist or partial agonist activity
Cl.N#Cc1cc(-c2cc([C@H](CN)CC(=O)O)ccc2Cl)ccc1Cl [Example 49, (3R)-4-Amino-3-[4-chloro-3-(4-chloro-3-cyanophenyl)phenyl]butanoic acid hydrochloride]	agonist or partial agonist activity
Cl.NC[C@H](CC(=O)O)c1ccc(Cl)c(NCc2ccc(F)cc2)c1 [(3R)-4-amino-3-(4-chloro-3-{[(4-fluorophenyl)methyl]amino}phenyl)butanoic acid hydrochloride]	agonist or partial agonist activity
Cl.NC[C@H](CC(=O)O)c1ccc(Cl)c(-c2ccc(C(=O)O)cc2)c1 [Example 24, 4-{5-[(1R)-2-Amino-1-(carboxymethyl)ethyl]-2-chlorophenyl}benzoic acid hydrochloride]	agonist or partial agonist activity
Cl.NC[C@H](CC(=O)O)c1ccc(Cl)c(-c2cnccc2C(=O)O)c1 [3-{5-[(1R)-2-amino-1-(carboxymethyl)ethyl]-2-chlorophenyl}pyridine-4-carboxylic acid hydrochloride]	agonist or partial agonist activity
Cl.N#Cc1ccc(COc2cc([C@H](CN)CC(=O)O)ccc2Cl)cc1 [(3R)-4-amino-3-{4-chloro-3-[(4-cyanophenyl)methoxy]phenyl}butanoic acid hydrochloride]	agonist or partial agonist activity
CC(C)(C)Oc1ccc(CNc2cc([C@H](CN)CC(=O)O)ccc2Cl)cc1.Cl [(3R)-4-amino-3-[3-({[4-(tert-butoxy)phenyl]methyl}amino)-4-chlorophenyl]butanoic acid hydrochloride]	agonist or partial agonist activity
Cl.NC[C@H](CC(=O)O)c1ccc(Cl)c(NCc2cccc(C(=O)O)c2)c1 [3-[({5-[(1R)-2-amino-1-(carboxymethyl)ethyl]-2-chlorophenyl}amino)methyl]benzoic acid hydrochloride]	agonist or partial agonist activity
